The series is described as follows: Conversion of Form E on suspending and stirring in solvent (slurry). It is filed as physicochemical. The text has this: The anhydrate crystal form (Form E) can be converted to other crystal forms under suitable conditions.

SMILES strings stand for the structures.

Consider `C=Cc1cc(O)cc2nc(-c3ccc(O)c(F)c3)oc12` [Form E, 2-(3-fluoro-4-hydroxyphenyl)-7-vinyl-1,3-benzoxazol-5-ol], for which the “crystal form conversion after suspension and stirring” value (shortened to “crystal form conversion”) (suspended and stirred in acetone at room temperature for seven days) is given as “another anhydrate crystal form is obtained”; the “crystal form conversion” value (suspended and stirred in ethanol at room temperature for seven days) was “another anhydrate crystal form is obtained”; the “crystal form conversion” value (suspended and stirred in water at room temperature for seven days) is on record as “converted to a hydrate crystal form”.
